These results are taken from US9944721B2, “Polysialic acid and use for treatment of neurodegenerative and neuroinflammatory diseases” (RHEINISCHE FRIEDRICH-WILHELMS UNIVERSITÄT BONN, priority 2013, dated 2018).

Data set [1] concerns co-culture of human microglial line and iPS cell derived neurons. As to the kind of experiment: Microglial neurotoxicity in human microglia-neuron co-culture, 24 hours (neurite length). Particulars: 1.5 μM, 24 hours co-culture; FIG. 4D. In kind it is cell-based. The method, then: Next, the human microglial line was co-cultured for 24 hours with neurons derived from induced pluripotent stem cells and the effect of low molecular weight polysialic acid (PSA-20; 1.5 μM) on microglial neurotoxicity was evaluated. The human neurons were generated from human induced pluripotent stem cells (iPS cells). In vitro differentiation into neurons was carried out using a short modified protocol, which was used to induce primitive neural precursors. In detail, iPS cells were cultured on feeder cells to form small colonies. Next medium was changed to neural induction medium in the presence of LIF and three small molecules CHIR99021 (inhibitor of GSK-3β) and SB431542 (inhibitor of TGF-β and activin receptors), and compound E (inhibitor of γ-secretase) for 10 days. To expand the neural precursors, cells were dissociated to single cells by accutase and plated on poly-L-ornithine/fibronectin coated cell culture dishes with induction medium in the presence of leukaemia inhibitory factor (LIF), CHIR99021 and SB431542. […] Ten random photographs were taken for each condition by confocal laser scanning microscopy (Fluoview 1000, Olympus) and length of neuronal branches was measured by Neuron J software (NIH).

For data set [2], the system named is human iPS cell derived neurons. As to the kind of experiment: MTT cell viability of human iPS cell derived neurons. In kind it is cell-based. Particulars: 24 hours. The method, then:
Human induced pluripotent stem (iPS) cells (Foreskin-1, WiCell) were used for generation of primitive neural stem cell (pNSC) and their differentiation into neurons according to a modified protocol, which was described to obtain primitive neural precursors from human embryonic stem cells. Briefly, iPS cells were cultured on feeder cells to form small colonies. Next, medium was changed to neural stem cell medium (DMEM/F12:Neurobasal; GIBCO) in the presence of leukaemia inhibiting factor (LIF; Millipore, 10 ng/ml) and three small molecules CHIR99021 (inhibitor of GSK-30, Axon Medchem, […]) and SB431542 (inhibitor of TGF-β and activin receptors; Axon Medchem, 3 μM), and Compound E (inhibitor of γ-secretase; Axon Medchem, 0.1 μM) for 10 days. […]
Cell viability was determined by the (3-(4,5-Dimethylthiazol-2-yl)-2,5-diphenyltetrazolium bromide (MTT) assay (Millipore). Cells were treated for 24 hours with 5 nM, 15 nM, 50 nM, 150 nM, 500 nM, 1.5 μM, 5 μM, 15 μM, 50 μM or 150 μM of PSA-20. After 20 hours of stimulation, 10 μl of MTT-reagent was added and cells were cultured for another 4 hours. Then, cells were lysed with isopropanol containing 0.04 M HCl 1M to measure the dye formazan. The light absorbance of the purple formazan dye was determined by a spectrophotometer at a wavelength of 570 nm with a reference wavelength of 630 nm (Perkin Elmer, Envision Multiplate Reader). […]

The nature of data set [3]: Biotinylated PSA-20 in serum and brain after intraperitoneal application (ELISA). The format is in vivo, mice. On the procedure: First, PSA-20 was conjugated with biotin and a sensitive ELISA to detect biotinylated PSA-20 was established. The PSA-20 was coupled with a biotin molecule at the sixth carbon atom of sialic acid at the terminus of the PSA-20 chains. Therefore, the terminus of PSA-20 was oxidized to an aldehyde by sodium metaperiodate. Afterwards, hydrazide coupled biotin was conjugated at room temperature to the aldehyde group to form a hydrazone bond. Purification was carried out with a desalting column (HiTrap Desalting Column GE Healthcare).
Biotin-conjugated PSA-20 (10 μg per g body weight) was applied in adult mice by intraperitoneal application. An ELISA method was used to detect biotinylated PSA-20 in the serum and brain. For the ELISA, NeutrAvidin coated pre-blocked plates (Thermo Scientific) were washed three times with PBST (PBS+0.05% Tween-20). After washing, plasma and brain homogenate as well as defined concentrations of biotinylated PSA-20 as standard were applied for 1 h at room temperature. Plates were washed three times and were incubated with a monoclonal antibody directed against oligosialic acids (rat-anti-mouse CD56, BD Pharmingen #556325) over night at 4° C. The following day the plate were washed three times and incubated with goat anti-mouse immunoglobulin conjugated with peroxidase-HRP (Jackson ImmunoResearch). Then, plates were washed and incubated with 100 μl TMB-reagent for 30 min at room temperature. The reaction was stopped by addition of 100 μl 1N HCl and the signal was detected with an ELISA reader.
Serum and brain tissue of one mouse was analyzed before application and at 0.5, 1, 2, 4 and 8 hours after application. The highest PSA-20 level was detected in the serum at 0.5 hours and in the brain at 2 hours. The half-time of PSA-20 in the serum and in the brain was estimated to be between 2 and 3 hours. The bioavailability of PSA-20 in the brain in relation to the serum was estimated to be between 1 and 3%. […] As can be taken from the FIG. 10C, PSA-20 was detected in the serum and the brain. […]

The mark [4] stands for this setting: biotin-conjugated PSA-20, 10 μg per g body weight i.p., adult mice.

For poly-(α(2→8)Neu5Ac)n [PSA-20], in data set [1], the “neurotoxic effect of human microglia on human neurons (relative neurite length)” value is “completely prevented the neurotoxic effect”. Moreover, in data set [2] (5 nM to 150 μM, FIG. 10A), the “cell viability of human neurons (MTT)” value is “not reduced”. In data set [2] (150 μM), the “neuronal cell viability (MTT)” value was “no interference”. In addition, the “passage of the blood-brain barrier” value in data set [3] (after systemic application) is on record as “passed the blood-brain barrier”. For the same substance, in data set [3] (setting [4]), the “time of peak concentration in the brain” value was 2 h and the “time of peak concentration in the serum” value was 0.5 h.
